Experimental data taken from US4312874A, “Antibacterial compounds, processes for their preparation and compositions containing them” (Beecham Group Limited, priority 1979, dated 1982).
In brackets after ≈: the same amount, converted by molar mass. Read-outs that look alike come from different tables or passages of the source.

Assays:
[1] = test system: Strep. faecalis; test: MIC by serial dilution in nutrient agar with 5% chocolated horse blood; assay type: cell-based; settings: Enterococcus faecalis
[2] = Serum binding by ultrafiltration; assay type: in vitro ADME; settings: pig, 8 mcg/ml, read-out: % Bound to Pig Serum (converted)
Procedure: Serum binding was assessed by ultrafiltration of procine serum containing compounds at 8 mcg/ml, and through an Amicon CF50A ultrafiltration cone. Separation of ultrafiltrate was achieved by centrifugation. Unbound concentrations of compound were measured in the ultrafiltrate by microbiological assay (B. subtilis ATCC 6633) against standards prepared in saline.

[3] = test system: M. gallisepticum S6; test: in vitro MIC by serial dilution in Friis modified agarose medium; assay type: cell-based; settings: Mycoplasmoides gallisepticum, Table 3
[4] = test system: Ps. aeruginosa 10662; test: MIC by serial dilution in nutrient agar with 5% chocolated horse blood; assay type: cell-based; settings: Pseudomonas aeruginosa
[5] = test system: M. bovigenitalium ATCC 14173; test: in vitro MIC by serial dilution in Friis modified agarose medium; assay type: cell-based
[6] = test system: E. coli E1; test: MIC by agar dilution, veterinary bacteria; settings: Escherichia coli, E1, 24 h
[7] = test system: M. suipneumoniae MS 16; test: in vitro MIC by serial dilution in Friis modified agarose medium; assay type: cell-based; settings: Mesomycoplasma hyopneumoniae, MS16; Table 3
[8] = test system: Bacillus subtilis 6633; test: MIC by serial dilution in nutrient agar with 5% chocolated horse blood; assay type: cell-based; settings: Table 1
[9] = test system: Haemophilus influenzae Q1; test: as above; assay type: cell-based; settings: Table 1
[10] = test system: M. suipneumoniae LABER; test: in vitro MIC by serial dilution in Friis modified agarose medium; assay type: cell-based; settings: Mesomycoplasma hyopneumoniae; Table 3
[11] = test system: M. bovis NCTC 10131; test: microbe, parasite or virus in culture; assay type: cell-based; settings: NCTC10131
[12] = test system: P. mirabilis 889; test: MIC by serial dilution in nutrient agar with 5% chocolated horse blood; assay type: cell-based; settings: Proteus mirabilis
[13] = test system: M. suipneumoniae TAM 6N; test: in vitro MIC by serial dilution in Friis modified agarose medium; assay type: cell-based; settings: Mesomycoplasma hyopneumoniae, TAM6N; Table 3
[14] = test system: K. aerogenes A; test: MIC by serial dilution in nutrient agar with 5% chocolated horse blood; assay type: cell-based; settings: Klebsiella aerogenes
[15] = test system: M.suipneumoniae NB12; test: in vitro MIC by serial dilution in Friis modified agarose medium; assay type: cell-based; settings: Mesomycoplasma hyopneumoniae, Table 3
[16] = test system: M. pneumoniae ATCC 15492; test: as above; assay type: cell-based; settings: Mycoplasmoides pneumoniae, ATCC15492; Table 3
[17] = test system: Pasteurella multocida 1633; test: MIC by serial dilution in nutrient agar with 5% chocolated horse blood; assay type: cell-based; settings: Table 1
[18] = test system: M. suipneumoniae NCTC 10110; test: in vitro MIC by serial dilution in Friis modified agarose medium; assay type: cell-based; settings: Mesomycoplasma hyopneumoniae, NCTC10110; Table 3
[19] = test system: M. hyorhinis ATCC 23234; test: as above; assay type: cell-based; settings: Mesomycoplasma hyorhinis, ATCC23234; Table 3
[20] = test system: Corynebacterium xerosis 9755; test: MIC by serial dilution in nutrient agar with 5% chocolated horse blood; assay type: cell-based; settings: Table 1
[21] = test system: Haemophilus influenzae Wy21; test: as above; assay type: cell-based
[22] = test system: Corynebacterium pyogenes CY1; test: MIC by agar dilution, veterinary bacteria; settings: CY1, 24 h
[23] = test system: Past. haemolytica PA5; test: MIC by agar dilution, veterinary bacteria; settings: Mannheimia haemolytica, PA5, 24 h
[24] = test system: M. suipneumoniae J2206/183b; test: in vitro MIC by serial dilution in Friis modified agarose medium; assay type: cell-based; settings: Mesomycoplasma hyopneumoniae, Table 3
[25] = test system: Strep. pyogenes C 2761; test: MIC by serial dilution in nutrient agar with 5% chocolated horse blood; assay type: cell-based; settings: Streptococcus pyogenes, C2761; Table 1
[26] = test system: Strep. agalactiae SPA1; test: MIC by agar dilution, veterinary bacteria; settings: Streptococcus agalactiae, SPA1, 24 h
[27] = test system: M. hyosnoviae ATCC 25591; test: in vitro MIC by serial dilution in Friis modified agarose medium; assay type: cell-based; settings: Table 3
[28] = test system: S. typhimurium S18; test: MIC by agar dilution, veterinary bacteria; settings: Salmonella enterica, 24 h
[29] = test system: Staph. aureus 152 (pen sens); test: MIC by agar dilution, veterinary bacteria; settings: Staphylococcus aureus, 24 h
[30] = test system: M. suipneumoniae ATCC 25095; test: in vitro MIC by serial dilution in Friis modified agarose medium; assay type: cell-based; settings: Mesomycoplasma hyopneumoniae, ATCC25095; Table 3
[31] = test system: Neisseria catarrhalis 1502; test: MIC by serial dilution in nutrient agar with 5% chocolated horse blood; assay type: cell-based
[32] = test system: Bord. bronchiseptica B09; test: MIC by agar dilution, veterinary bacteria; settings: Bordetella bronchiseptica, B09, 24 h
[33] = test system: Erysipelothrix rhusiopathiae NCTC 8163; test: MIC by agar dilution, veterinary bacteria; settings: NCTC8163, 24 h
[34] = test system: Past. multocida PA2; test: MIC by agar dilution, veterinary bacteria; settings: Pasteurella multocida, PA2, 24 h
[35] = test system: M. siupneumoniae HK(2); test: in vitro MIC by serial dilution in Friis modified agarose medium; assay type: cell-based; settings: Table 3
[36] = test system: Strep. uberis SPU1; test: MIC by agar dilution, veterinary bacteria; settings: Streptococcus uberis, SPU1, 24 h
[37] = test system: Past. multocida PA1; test: MIC by agar dilution, veterinary bacteria; settings: Pasteurella multocida, PA1, 24 h
[38] = test system: Staph. aureus Oxford; test: MIC by serial dilution in nutrient agar with 5% chocolated horse blood; assay type: cell-based; settings: Staphylococcus aureus; Table 1
[39] = test system: M. suipneumoniae Str. 11; test: in vitro MIC by serial dilution in Friis modified agarose medium; assay type: cell-based; settings: Mesomycoplasma hyopneumoniae, Table 3
[40] = test system: Strep. pyogenes B 2788; test: MIC by serial dilution in nutrient agar with 5% chocolated horse blood; assay type: cell-based; settings: Streptococcus pyogenes, B2788; Table 1
[41] = test system: Staph. aureus Russell; test: as above; assay type: cell-based; settings: Staphylococcus aureus; Table 1

CCC(=O)C=C(C)CC1OCC(CC2OC2C(C)C(C)O)C(O)C1O [Example 2, 1-[3R,4R-Dihydroxy-5S-(2S,3S-epoxy-5-S-hydroxy-4S-methylhexyl)tetrahydropyran-2S-yl]-2-methylhex-2E-en-4-one]
MIC [1]: > 50 µg/mL | fraction unbound [2]: 0.739 | MIC [3]: > 10 µg/mL | MIC [4]: > 50 µg/mL | MIC [5]: 0.1 µg/mL (≈ 0.281 µM) | MIC [6]: > 40 µg/mL | MIC [7]: 2.5 µg/mL (≈ 7.01 µM) | MIC [8]: 2.5 µg/mL (≈ 7.01 µM) | MIC [9]: 0.2 µg/mL (≈ 0.561 µM) | MIC [10]: 2.5 µg/mL (≈ 7.01 µM) | MIC [11]: 0.1 µg/mL (≈ 0.281 µM) | MIC [12]: > 50 µg/mL | MIC [13]: 2.5 µg/mL (≈ 7.01 µM) | MIC [14]: > 50 µg/mL | MIC [15]: 2.5 µg/mL (≈ 7.01 µM) | MIC [16]: > 10 µg/mL | MIC [17]: 2.5 µg/mL (≈ 7.01 µM) | MIC [18]: 5 µg/mL (≈ 14 µM) | MIC [19]: 2.5 µg/mL (≈ 7.01 µM) | MIC [20]: 25 µg/mL (≈ 70.1 µM) | MIC [21]: 0.5 µg/mL (≈ 1.4 µM) | MIC [22]: > 40 µg/mL | MIC [23]: 5 µg/mL (≈ 14 µM) | MIC [24]: 5 µg/mL (≈ 14 µM) | MIC [25]: 25 µg/mL (≈ 70.1 µM) | MIC [26]: 20 µg/mL (≈ 56.1 µM) | MIC [27]: 2.5 µg/mL (≈ 7.01 µM) | MIC [28]: > 40 µg/mL | MIC [29]: 0.312 µg/mL (≈ 0.875 µM) | MIC [30]: 2.5 µg/mL (≈ 7.01 µM) | MIC [31]: 0.5 µg/mL (≈ 1.4 µM) | MIC [32]: 40 µg/mL (≈ 112 µM) | MIC [33]: > 40 µg/mL | MIC [34]: 0.312 µg/mL (≈ 0.875 µM) | MIC [35]: 2.5 µg/mL (≈ 7.01 µM) | MIC [36]: 5 µg/mL (≈ 14 µM) | MIC [37]: 0.625 µg/mL (≈ 1.75 µM) | MIC [38]: 1.2 µg/mL (≈ 3.37 µM) | MIC [39]: 2.5 µg/mL (≈ 7.01 µM) | MIC [40]: 25 µg/mL (≈ 70.1 µM) | MIC [41]: 2.5 µg/mL (≈ 7.01 µM)

CCCCC(=O)C=C(C)CC1OCC(CC2OC2C(C)C(C)O)C(O)C1O [Example 3, 1-[3R,4R-Dihydroxy-5S-(2S,3S-epoxy-5S-hydroxy-4S-methylhexyl)tetrahydropyran-2S-yl]-2-methyloct-2E-en-4-one]
MIC ([1]; Table 1, read-out: MIC): > 100 µg/mL | fraction unbound [2]: 0.469 | MIC [3]: > 10 µg/mL | MIC ([4]; Table 1, read-out: MIC): > 100 µg/mL | MIC ([5]; Table 3, read-out: MIC): 0.05 µg/mL (≈ 0.13 µM) | MIC [6]: > 80 µg/mL | MIC [7]: 0.5 µg/mL (≈ 1.3 µM) | MIC [8]: 0.5 µg/mL (≈ 1.3 µM) | MIC [9]: 0.2 µg/mL (≈ 0.52 µM) | MIC [10]: 0.5 µg/mL (≈ 1.3 µM) | MIC [11]: 0.025 µg/mL (≈ 0.065 µM) | MIC ([12]; Table 1, read-out: MIC): 100 µg/mL (≈ 260 µM) | MIC [13]: 1 µg/mL (≈ 2.6 µM) | MIC ([14]; Table 1, read-out: MIC): > 100 µg/mL | MIC [15]: 1 µg/mL (≈ 2.6 µM) | MIC [16]: 10 µg/mL (≈ 26 µM) | MIC [17]: 0.5 µg/mL (≈ 1.3 µM) | MIC [18]: 1 µg/mL (≈ 2.6 µM) | MIC [19]: 0.5 µg/mL (≈ 1.3 µM) | MIC [20]: 100 µg/mL (≈ 260 µM) | MIC ([21]; Table 1, read-out: MIC): 0.2 µg/mL (≈ 0.52 µM) | MIC [22]: > 80 µg/mL | MIC [23]: 20 µg/mL (≈ 52 µM) | MIC [24]: 1 µg/mL (≈ 2.6 µM) | MIC [25]: 2.5 µg/mL (≈ 6.5 µM) | MIC [26]: 10 µg/mL (≈ 26 µM) | MIC [27]: 0.25 µg/mL (≈ 0.65 µM) | MIC [28]: > 80 µg/mL | MIC [29]: 2.5 µg/mL (≈ 6.5 µM) | MIC [30]: 1 µg/mL (≈ 2.6 µM) | MIC ([31]; Table 1, read-out: MIC): 0.5 µg/mL (≈ 1.3 µM) | MIC [32]: 40 µg/mL (≈ 104 µM) | MIC [33]: > 80 µg/mL | MIC [34]: 1.25 µg/mL (≈ 3.25 µM) | MIC [35]: 1 µg/mL (≈ 2.6 µM) | MIC [36]: 2.5 µg/mL (≈ 6.5 µM) | MIC [37]: 2.5 µg/mL (≈ 6.5 µM) | MIC [38]: 1 µg/mL (≈ 2.6 µM) | MIC [39]: 0.5 µg/mL (≈ 1.3 µM) | MIC [40]: 2.5 µg/mL (≈ 6.5 µM) | MIC [41]: 1 µg/mL (≈ 2.6 µM)
